Tests used:
[1] = Antiinflammatory activity in mouse neutrophils assessed as inhibition of LPS-stimulated TNFalpha cytokine expression at 1 ug/ml after 3 hrs by flow cytometeric analysis; assay type: functional; details: Neutrophil
[2] = Antiinflammatory activity in mouse neutrophils assessed as inhibition of LPS-stimulated IL1-beta expression at 1 ug/ml after 4-5 hrs by ELISA relative to control; assay type: functional; details: Neutrophil
[3] = Antiinflammatory activity in mouse neutrophils assessed as inhibition of LPS-stimulated IL-6 expression at 1 ug/ml after 4-5 hrs by ELISA relative to control; assay type: functional; details: Neutrophil
[4] = Antiinflammatory activity in mouse neutrophils assessed as inhibition of LPS-stimulated TNFalpha cytokine expression at 100 ug/ml after 3 hrs by flow cytometeric analysis; assay type: functional; details: Neutrophil
[5] = Antiinflammatory activity in mouse neutrophils assessed as inhibition of LPS-stimulated IL1-beta expression after 4-5 hrs by ELISA relative to control; assay type: functional, Neutrophil
[6] = Antiinflammatory activity in mouse neutrophils assessed as inhibition of LPS-stimulated IL-6 expression at 100 ug/ml after 4-5 hrs by ELISA relative to control; assay type: functional; details: Neutrophil

Row | Compound | inhibition at 1 µg/mL [1] | further results
1 | C=C1C(=O)O[C@@H]2[C@H]1CC[C@H](C)[C@]1(OC(=O)CCC)C=CC(=O)O[C@@]21C | 12.5% | 
2 | C=C1C(=O)O[C@@H]2[C@H]1CC[C@H](C)[C@]1(O)CCC(=O)[C@@]21C [CORONOPILIN] | -7.03% | 
3 | C=C1C(=O)O[C@@H]2[C@H]1CC[C@H](C)C1=C[C@@H](OC(=O)CC)C(=O)[C@]12C | -9.37% | 
4 | C=C1C(=O)O[C@@H]2[C@H]1CC[C@H](C)C1=C[C@H](OC(C)=O)C(=O)[C@]12C | 5.46% | 
5 | C=C1C(=O)O[C@@H]2[C@H]1CC[C@H](C)[C@]1(OC(=O)CC)C=CC(=O)[C@@]21C | -17.2% | 
6 | C=C1C(=O)O[C@@H]2[C@H]1CC[C@H](C)C1=C[C@@H](OC(C)=O)C(=O)[C@]12C | 2.34% | 
7 | C=C1C(=O)O[C@@H]2[C@H]1CC[C@H](C)[C@]1(C=CC(=O)O1)[C@@]2(C)O | 31.2% | 
8 | C[C@H]1CC[C@@H]2[C@@H](OC(=O)[C@@]23CCN=N3)[C@](C)(O)[C@@]12C=CC(=O)O2 | 49.2% | inhibition at 1 µg/mL [2]: 36%; inhibition at 1 µg/mL [3]: 11.3%
9 | CC1=C2CC[C@H](C)[C@]3(O)CCC(=O)O[C@@]3(C)[C@@H]2OC1=O | 53.1% | inhibition at 1 µg/mL [2]: 40.9%; inhibition at 1 µg/mL [3]: 17.1%
10 | C=C1C(=O)O[C@@H]2[C@H]1CC[C@H](C)[C@]1(O)C=CC(=O)[C@@]21C [PARTHENIN] | -0.39% | 
11 | C[C@H]1CC[C@@H]2[C@@H](OC(=O)[C@@]23CCN=N3)[C@]2(C)OC(=O)C=C[C@@]12O | 59.8% | inhibition at 1 µg/mL [2]: 41.4%; inhibition at 1 µg/mL [3]: 14%
12 | C=C1C(=O)O[C@@H]2[C@H]1CC[C@H](C)[C@]1(O)C=CC(=O)O[C@@]21C | 41.4% | 
13 | C=C1C(=O)O[C@@H]2[C@H]1CC[C@H](C)[C@]1(CCC(=O)O1)[C@@]2(C)O [PSILOSTACHYIN A] | 39.5% | 
14 | C=C1C(=O)O[C@@H]2[C@H]1CC[C@H](C)[C@]1(OC(=O)CC)C=CC(=O)O[C@@]21C | 26.9% | 
15 | C=C1C(=O)O[C@@H]2[C@H]1CC[C@H](C)C1=C[C@@H](OC(=O)CCC)C(=O)[C@]12C | 32% | 
16 | COc1ccc(C2CNC(=O)C2)cc1OC1CCCC1 (centres undefined) [ROLIPRAM] |  | inhibition at 100 µg/mL [4]: 71.5%; inhibition (INH) [5]: 64.27%; inhibition at 100 µg/mL [6]: 36.1%
17 | C=C1C(=O)O[C@@H]2[C@H]1CC[C@H](C)[C@]1(OC(C)=O)C=CC(=O)[C@@]21C | -1.17% | 
18 | C=C1C(=O)O[C@@H]2[C@H]1CC[C@H](C)[C@]1(OC(C)=O)C=CC(=O)O[C@@]21C | 16.8% | 
19 | C=C1C(=O)O[C@@H]2[C@H]1CC[C@H](C)C1=C[C@H](OC(=O)CC)C(=O)[C@]12C | 10.5% | 
20 | C=C1C(=O)O[C@@H]2[C@H]1CC[C@H](C)[C@]1(OC(=O)CCC)C=CC(=O)[C@@]21C | 14.1% | 
21 | C=C1C(=O)O[C@@H]2[C@H]1CC[C@H](C)C1=C[C@H](OC(=O)CCC)C(=O)[C@]12C | -6.64% | 

From ChEMBL document CHEMBL1811867, “Psilostachyin, acetylated pseudoguaianolides and their analogues: preparation and evaluation of their anti-inflammatory potential” (2011)
